{
  "source": "patent US20220313629A1",
  "about": "“TRANSIENT POTENTIAL MELASTATIN 8 (TRPM8) ANTAGONISTS AND RELATED METHODS” (MARSHALL UNIVERSITY RESEARCH CORPORATION, priority 2019, published 2022)",
  "key": {"TRPM8": {"target": "TRPM8 (Homo sapiens, UniProt Q7Z2W7)", "sequence (Q7Z2W7 whole entry)": "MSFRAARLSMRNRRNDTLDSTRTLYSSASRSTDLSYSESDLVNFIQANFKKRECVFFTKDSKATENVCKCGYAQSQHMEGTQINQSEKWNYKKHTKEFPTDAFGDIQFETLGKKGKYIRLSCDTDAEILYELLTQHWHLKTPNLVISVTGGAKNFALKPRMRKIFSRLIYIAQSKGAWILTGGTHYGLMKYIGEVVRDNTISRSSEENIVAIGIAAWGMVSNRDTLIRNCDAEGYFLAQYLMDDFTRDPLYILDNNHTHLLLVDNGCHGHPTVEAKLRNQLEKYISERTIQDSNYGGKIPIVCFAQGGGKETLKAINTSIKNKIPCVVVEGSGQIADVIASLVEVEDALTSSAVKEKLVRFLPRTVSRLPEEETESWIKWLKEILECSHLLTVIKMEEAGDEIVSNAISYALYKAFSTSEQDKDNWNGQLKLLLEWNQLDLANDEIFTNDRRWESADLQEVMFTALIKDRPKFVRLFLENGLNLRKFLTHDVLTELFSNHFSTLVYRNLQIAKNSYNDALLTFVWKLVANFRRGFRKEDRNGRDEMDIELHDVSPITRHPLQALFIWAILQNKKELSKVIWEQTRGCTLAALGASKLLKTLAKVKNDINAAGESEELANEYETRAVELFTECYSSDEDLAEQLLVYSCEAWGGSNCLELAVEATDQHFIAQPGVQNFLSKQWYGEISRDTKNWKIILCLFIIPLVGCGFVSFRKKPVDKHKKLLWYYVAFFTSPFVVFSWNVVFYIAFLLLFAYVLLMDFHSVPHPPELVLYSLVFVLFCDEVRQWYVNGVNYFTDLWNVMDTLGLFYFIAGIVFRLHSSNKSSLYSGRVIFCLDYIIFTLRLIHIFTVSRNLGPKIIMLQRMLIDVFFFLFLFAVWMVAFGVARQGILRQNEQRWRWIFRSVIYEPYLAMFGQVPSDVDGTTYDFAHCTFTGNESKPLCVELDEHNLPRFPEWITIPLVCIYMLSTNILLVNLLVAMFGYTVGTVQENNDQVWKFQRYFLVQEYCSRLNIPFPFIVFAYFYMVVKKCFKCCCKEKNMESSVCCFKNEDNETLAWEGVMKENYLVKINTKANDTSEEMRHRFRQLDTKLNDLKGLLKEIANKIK", "assay": "TRPM8 antagonist activity by Fura-2 Ca2+ imaging in HEK-293 cells stably expressing human TRPM8", "type": "cell-based", "conditions": "for IC50: read-out: Functional Activity hTRPM8 potency IC50 ± SEM"}, "human TRPA1": {"target": "human TRPA1 (Homo sapiens, UniProt O75762)", "sequence (O75762 whole entry)": "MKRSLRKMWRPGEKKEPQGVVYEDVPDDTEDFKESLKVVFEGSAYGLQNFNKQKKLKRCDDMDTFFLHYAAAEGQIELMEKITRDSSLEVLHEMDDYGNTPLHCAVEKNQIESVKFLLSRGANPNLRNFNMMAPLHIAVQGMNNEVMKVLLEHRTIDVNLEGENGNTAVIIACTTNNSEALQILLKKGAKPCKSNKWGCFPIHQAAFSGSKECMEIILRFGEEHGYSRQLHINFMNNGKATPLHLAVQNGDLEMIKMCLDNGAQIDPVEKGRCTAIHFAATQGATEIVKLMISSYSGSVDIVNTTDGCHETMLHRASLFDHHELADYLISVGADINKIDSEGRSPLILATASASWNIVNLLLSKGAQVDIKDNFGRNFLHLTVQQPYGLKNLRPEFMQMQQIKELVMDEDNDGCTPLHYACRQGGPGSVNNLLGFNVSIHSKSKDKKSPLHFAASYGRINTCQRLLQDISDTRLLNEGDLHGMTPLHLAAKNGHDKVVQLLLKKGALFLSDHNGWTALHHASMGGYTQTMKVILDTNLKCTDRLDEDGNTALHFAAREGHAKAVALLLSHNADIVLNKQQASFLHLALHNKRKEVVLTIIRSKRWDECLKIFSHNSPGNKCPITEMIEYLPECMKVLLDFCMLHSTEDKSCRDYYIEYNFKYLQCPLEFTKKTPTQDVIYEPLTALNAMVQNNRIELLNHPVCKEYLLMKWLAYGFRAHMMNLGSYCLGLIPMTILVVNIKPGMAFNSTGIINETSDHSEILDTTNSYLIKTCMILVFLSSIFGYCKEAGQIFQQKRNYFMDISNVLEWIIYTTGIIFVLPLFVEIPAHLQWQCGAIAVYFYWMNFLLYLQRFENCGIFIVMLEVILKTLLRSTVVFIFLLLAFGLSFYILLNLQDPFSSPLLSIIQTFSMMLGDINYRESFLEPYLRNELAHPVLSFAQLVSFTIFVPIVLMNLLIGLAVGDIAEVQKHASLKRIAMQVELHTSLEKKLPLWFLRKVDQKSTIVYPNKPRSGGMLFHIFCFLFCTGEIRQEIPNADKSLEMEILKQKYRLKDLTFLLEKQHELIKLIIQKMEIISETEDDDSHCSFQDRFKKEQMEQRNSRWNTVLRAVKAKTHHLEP", "assay": "TRPA1 agonist and antagonist Ca2+ flux assay (FLIPR, Fluo-8) in HEK293 cells stably expressing human TRPA1", "type": "cell-based", "conditions": "for hTRPA1 % Activation (n = 3-5): normalized to Emax of AITC (300 μM)"}, "human TRPV1": {"target": "human TRPV1 (Homo sapiens, UniProt Q8NER1)", "sequence (Q8NER1 whole entry)": "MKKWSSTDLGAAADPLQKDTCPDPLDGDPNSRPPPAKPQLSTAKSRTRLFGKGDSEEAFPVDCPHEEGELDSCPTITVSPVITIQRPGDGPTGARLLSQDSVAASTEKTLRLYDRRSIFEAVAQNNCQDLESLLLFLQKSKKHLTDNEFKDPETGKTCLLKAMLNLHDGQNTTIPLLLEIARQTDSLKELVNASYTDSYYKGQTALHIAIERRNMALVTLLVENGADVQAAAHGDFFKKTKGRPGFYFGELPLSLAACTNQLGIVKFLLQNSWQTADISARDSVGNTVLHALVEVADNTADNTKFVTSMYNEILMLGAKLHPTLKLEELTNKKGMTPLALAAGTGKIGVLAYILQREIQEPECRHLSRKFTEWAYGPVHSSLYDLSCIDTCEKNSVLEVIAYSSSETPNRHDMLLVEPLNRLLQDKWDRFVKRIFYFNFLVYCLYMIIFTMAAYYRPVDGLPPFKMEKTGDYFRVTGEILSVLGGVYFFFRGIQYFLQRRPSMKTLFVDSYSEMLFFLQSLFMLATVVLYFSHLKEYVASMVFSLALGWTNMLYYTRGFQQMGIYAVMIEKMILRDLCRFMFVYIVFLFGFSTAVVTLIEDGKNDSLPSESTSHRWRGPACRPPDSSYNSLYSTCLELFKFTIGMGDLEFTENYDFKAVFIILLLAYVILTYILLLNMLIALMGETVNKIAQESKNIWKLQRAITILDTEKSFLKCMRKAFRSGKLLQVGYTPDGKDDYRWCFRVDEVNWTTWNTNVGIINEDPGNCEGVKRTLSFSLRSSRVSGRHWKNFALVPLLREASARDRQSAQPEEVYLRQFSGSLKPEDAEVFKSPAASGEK", "assay": "TRPV1 agonist and antagonist Ca2+ flux assay (FLIPR, Fluo-8) in HEK293 cells stably expressing human TRPV1", "type": "cell-based", "conditions": "for hTRPV1 % Activation (n = 3): normalized to Emax of capsaicin (3 μM)"}, "[1]": {"assay": "Stability in liver microsomes", "type": "in vitro ADME", "conditions": "mouse liver microsomes, 1 μM, NADPH", "procedure": "Stability in liver microsomes. Male CD-1 mouse liver microsomes (Lot#1710069) were purchased from XenoTech. The reaction mixture, minus NADPH, was prepared as described below. Compound 14 was added into the reaction mixture at a final concentration of 1 μM. The control compound, testosterone, was run simultaneously with Compound 14 in a separate reaction. An aliquot of the reaction mixture (without cofactor) was equilibrated in a shaking water bath at 37° C. for 3 minutes. The reaction was initiated by the addition of the cofactor, and the mixture was incubated in a shaking water bath at 37° C. Aliquots (100 μL) were withdrawn at 0, 10, 20, 30, and 60 minutes. Compound 14 and testosterone samples were immediately combined with 400 μL of ice-cold 50/50 acetonitrile (ACN)/H2O containing 0.1% formic acid and internal standard to terminate the reaction. The samples were then mixed and centrifuged to precipitate proteins. All samples were assayed by LC-MS/MS using electrospray ionization. […] are compared to the PARR at time 0 to determine the percent remaining at each time point. Half-lives and intrinsic clearance were calculated using GraphPad software, fitting to a single-phase exponential decay equation.\nIn vitro metabolic stability. Compound 14 was evaluated for metabolic stability in mouse liver microsomes by Absorption Systems (Exton, Pa.), by determining the percent remaining at 0, 10, 20, 30 and 60 minutes when incubated with mouse liver microsomes in the presence of NADPH. The half-life (t1/2) and in vitro intrinsic clearance (CLint) of Compound 14 was calculated, in addition to the control (testosterone)."}, "[2]": {"test_system": "icilin-induced wet-dog shakes (WDS) in ICR (CD1) mice", "assay": "Wet-dog shakes (WDS) assay, icilin-induced", "type": "in vivo, mouse"}, "[3]": {"test_system": "Oxaliplatin (OXP)-induced cold allodynia in male C57-mice", "assay": "Oxaliplatin (OXP)-induced cold allodynia, acetone test", "type": "in vivo, mouse", "procedure": "In Vivo Assays. C57-mice (≈30g) (Harlam, Holland) were used for the study. All experiments were approved by the Institutional Animal and Ethical Committee of the Universidad Miguel Hernandez where experiments were conducted and they were in accordance with the guidelines of the Economic European Community and the Committee for Research and Ethical Issues of the International Association for the Study of Pain. All parts of the study concerning animal care were performed under the control of veterinarians.\nCold allodynia. Oxaliplatin (Tocris) was dissolved in water with gentle warming and was […] injected on days 1, 3 and 5 at a 6 mg/kg dose. The day 7 after administration, experiments were performed. Together with Oxaliplatin injection, saline and a 5% Mannitol solution were intraperitoneally injected to prevent kidney damage and dehydration. The Compound 14 stock was prepared in DMSO (Sigma-Aldrich) and diluted in saline for injections. Compounds at different doses (0.1 to 1 μg) was injected into the plantar surface (25 μL) of the right hind paw of mice. Cold chemical thermal sensitivity was assessed using acetone drop method. Mice were placed in a metal mesh cage and allowed to habituate for approximately 30 minutes in order to acclimatize them. Freshly dispensed acetone drop (10 μL) was applied gently on to the mid plantar surface of the hind paw. Cold chemical sensitive reaction with respect to paw licking was recorded as a positive response (nociceptive pain response). The responses were measured for 20-s with a digital stopwatch. For each measurement, the paw was sampled twice and the mean was calculated. The interval between each application of acetone was approximately 5 minutes.\nCold Allodynia. […] Both acute and chronic OXP-induced cold hypersensitivity have been reproduced in rats and correlated with TRPM8 expression and function. Mizoguchi et al. reported that, in a rodent model, acute cold allodynia after OXP injection was alleviated by the TRPM8 blockers N-(2-aminoethyl)-N-[4-(benzyloxy)-3-methoxybenzyl]-N′-(1S)-1-(phenyl) ethyl] urea and TC-I 2014. According to these findings, the effect of Compound 14 was investigated in an OXP-induced cold allodynia model, using acetone for cooling stimulation. Considering that the cold pain threshold is increased from ≈12° C. to ≈26° C. in OXP-treated patients, acetone stimulation is considered to evoke pain in OXP-treated mice.\nThe activity of Compound 14 was evaluated 7 days after three intraperitoneal injections of OXP (6 mg/kg) in C57/BL6 mice, when cold allodynia had developed."}, "[4]": {"conditions": "HEK293, read-out: hTRPA1 % Inhibition (n = 3)"}, "[5]": {"conditions": "at concentrations 13- to 25-fold higher than hTRPM8 IC50"}, "[6]": {"conditions": "HEK293, read-out: hTRPV1 % Inhibition (n = 3)"}, "[7]": {"conditions": "0.1 and 1 μg single administration, day 7 after OXP"}},
  "note": "Like-named read-outs stand apart in the source and are kept apart here.",
  "data": [
    {"molecule": "O=C(NC1CCC2(CCCC2)CC1)c1ccc(-c2ccccc2)cc1", "note": "[Compound 14, N-(spiro[4.5]decan-8-yl)-[1,1′-biphenyl]-4-carboxamide]", "values": [
      {"measurement": "effect on menthol-evoked TRPM8-mediated Ca2+ entry", "setting": "TRPM8; compound at 3 nM against maximal (100 μM) menthol", "value": "significantly (P<0.01) reduce TRPM8-mediated Ca^2+ entry triggered by menthol"},
      {"measurement": "effect on icilin-induced Ca2+ influx at higher concentrations", "setting": "TRPM8; higher concentrations of the dose-response curve", "value": "nearly abolishes the Ca^2+ influx"},
      {"measurement": "lowest concentration still causing significant reduction in icilin-evoked TRPM8-mediated Ca2+ entry", "setting": "TRPM8; icilin 500 nM", "value": 3, "unit": "nM"},
      {"measurement": "IC50", "setting": "TRPM8; inhibition of icilin (500 nM)-evoked Ca2+ entry, HEK-293 cells stably expressing hTRPM8, mean ± SEM, three independent experiments", "value": "2.4 ± 1", "unit": "nM"},
      {"measurement": "IC50", "setting": "TRPM8", "value": "≤ 10", "unit": "nM"},
      {"measurement": "inhibition at 0.003 µM", "setting": "human TRPA1; [4]", "value": "-6 ± 5", "unit": "%"},
      {"measurement": "inhibition at 0.03 µM", "setting": "human TRPA1; [4]", "value": "-3 ± 2", "unit": "%"},
      {"measurement": "effect on hTRPA1-mediated responses (intrinsic and antagonist activity)", "setting": "human TRPA1; [5]", "value": "do not affect"},
      {"measurement": "selectivity for TRPM8 vs. TRPA1", "setting": "human TRPA1; from FLIPR single-point assays", "value": 13, "unit": "fold"},
      {"measurement": "hTRPA1 % Activation (n = 3-5)", "setting": "human TRPA1; tested at 3 nM", "value": "−0.8 ± 0.4", "unit": "%"},
      {"measurement": "hTRPA1 % Activation (n = 3-5)", "setting": "human TRPA1; tested at 30 nM", "value": "0.1 ± 1.2", "unit": "%"},
      {"measurement": "inhibition at 0.003 µM", "setting": "human TRPV1; [6]", "value": "-9 ± 2", "unit": "%"},
      {"measurement": "inhibition at 0.03 µM", "setting": "human TRPV1; [6]", "value": "-0.6 ± 5", "unit": "%"},
      {"measurement": "effect on hTRPV1-mediated responses (intrinsic and antagonist activity)", "setting": "human TRPV1; [5]", "value": "do not affect"},
      {"measurement": "selectivity for TRPM8 vs. TRPV1", "setting": "human TRPV1; from FLIPR single-point assays", "value": 13, "unit": "fold"},
      {"measurement": "hTRPV1 % Activation (n = 3)", "setting": "human TRPV1; tested at 3 nM", "value": "1 ± 1", "unit": "%"},
      {"measurement": "hTRPV1 % Activation (n = 3)", "setting": "human TRPV1; tested at 30 nM", "value": "1 ± 2", "unit": "%"},
      {"measurement": "% Remaining of Initial (n = 1), 0 min", "setting": "[1]; 0 min", "value": 100, "unit": "%"},
      {"measurement": "% Remaining of Initial (n = 1), 10 min", "setting": "[1]; 10 min", "value": 78, "unit": "%"},
      {"measurement": "% Remaining of Initial (n = 1), 20 min", "setting": "[1]; 20 min", "value": 57, "unit": "%"},
      {"measurement": "% Remaining of Initial (n = 1), 30 min", "setting": "[1]; 30 min", "value": 47, "unit": "%"},
      {"measurement": "% Remaining of Initial (n = 1), 60 min", "setting": "[1]; 60 min", "value": 31, "unit": "%"},
      {"measurement": "inhibition of WDS at the highest dose compared with gabapentin", "setting": "[2]; 50 mg/kg s.c., gabapentin 25 mg/kg s.c.", "value": "efficacy comparable to that observed with a standard analgesic dose of gabapentin"},
      {"measurement": "effect on icilin-induced wet-dog shakes", "setting": "[2]; 1, 30 and 50 mg/kg s.c. 30 minutes before icilin (10 mg/kg i.p.)", "value": "marked, dose-dependent antinociceptive behavior"},
      {"measurement": "time after administration at which attenuated cold allodynia is evident", "setting": "[3]; [7]", "value": 15, "unit": "min"},
      {"measurement": "time after administration of maximum inhibition of cold allodynia", "setting": "[3]; [7]", "value": 30, "unit": "min"},
      {"measurement": "effect on OXP effects at 60 minutes", "setting": "[3]; 60 minutes after administration", "value": "significantly suppresses OXP effects"},
      {"measurement": "effect on oxaliplatin-induced cold allodynia", "setting": "[3]; C57/BL6 mice", "value": "able to attenuate oxaliplatin-induced cold allodynia in vivo"}
    ]}
  ]
}
